# Where “and” joins values, the source holds several entries; their conditions need not be identical. Equal entries are not always repeated. Where a SMILES comes first, the peptide text is derived from it. The star is where a group is joined. Cbz = O=C(OCc1ccccc1)*
# Legend:
# SW48 = experiment: cells; format: functional, cell-based; settings: Homo sapiens;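 also: growth inhibition of SW48 cells, read out with a cell viability assay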
# Description: SANGER: Inhibition of human SW48 cell growth in a cell viability assay.
# T-24 = experiment: cells; format: functional, cell-based; settings: Homo sapiens;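 also: growth inhibition of T-24 cells, read out with a cell viability assay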
# Description: SANGER: Inhibition of human T-24 cell growth in a cell viability assay.
# HCC 2998 = experiment: cells; format: functional, cell-based; settings: Homo sapiens;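 also: growth inhibition of human HCC2998 cells, measured with a cell viability read-out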
# Description: SANGER: Inhibition of human HCC2998 cell growth in a cell viability assay.
# HCC1806 = experiment: cells; format: functional, cell-based; settings: Homo sapiens;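 also: growth inhibition of the cancer cell line, determined with a cell viability assay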
# Description: SANGER: Inhibition of human HCC1806 cell growth in a cell viability assay.
# HT-3 = experiment: cells; format: functional, cell-based; settings: Homo sapiens;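 also: growth inhibition measured with a cell viability readout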
# Description: SANGER: Inhibition of human HT-3 cell growth in a cell viability assay.
# KP-N-YN = experiment: cells; format: functional, cell-based; settings: Homo sapiens;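 also: growth inhibition of KP-N-YN cells, read out with a cell viability assay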
# Description: SANGER: Inhibition of human KP-N-YN cell growth in a cell viability assay.
# CAL-12T = experiment: cells; format: functional, cell-based; settings: Homo sapiens;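 also: growth inhibition of human CAL-12T cells, read out with a cell viability assay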
# Description: SANGER: Inhibition of human CAL-12T cell growth in a cell viability assay.
# NCI-H2052 = experiment: cells; format: functional, cell-based; settings: Homo sapiens;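 also: growth inhibition of NCI-H2052 cells, read out with a cell viability assay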
# Description: SANGER: Inhibition of human NCI-H2052 cell growth in a cell viability assay.
# KYSE-70 cell line = experiment: cells; format: functional, cell-based; settings: Homo sapiens;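 also: cell viability assay read-out, with IC50 expressing suppression of KYSE-70 cell growth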
# Description: SANGER: Inhibition of human KYSE-70 cell growth in a cell viability assay.
# SBC-5 = experiment: cells; format: functional, cell-based; settings: Homo sapiens;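 also: cell viability assay read-out, IC50 is the concentration that inhibits growth of the cells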
# Description: SANGER: Inhibition of human SBC-5 cell growth in a cell viability assay.
# G-401 = experiment: cells; format: functional, cell-based; settings: Homo sapiens
# Description: SANGER: Inhibition of human G-401 cell growth in a cell viability assay.
# CAL-62 = experiment: cells; format: functional, cell-based; settings: Homo sapiens;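 also: growth inhibition of CAL-62 cells, read out with a cell viability assay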
# Description: SANGER: Inhibition of human CAL-62 cell growth in a cell viability assay.
# SiHa = experiment: cells; format: functional, cell-based; settings: Homo sapiens;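 also: Viability-based readout of growth inhibition in SiHa cells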
# Description: SANGER: Inhibition of human SiHa cell growth in a cell viability assay.
# EFO-27 = experiment: cells; format: functional, cell-based; settings: Homo sapiens;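 also: growth inhibition of EFO-27 cells, read out with a cell viability assay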
# Description: SANGER: Inhibition of human EFO-27 cell growth in a cell viability assay.
# HCC70 = experiment: cells; format: functional, cell-based; settings: Homo sapiens;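 also: cell viability assay measuring how strongly the compound suppresses proliferation of HCC70 cells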
# Description: SANGER: Inhibition of human HCC70 cell growth in a cell viability assay.
# MKN-45 = experiment: cells; format: functional, cell-based; settings: Homo sapiens;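 also: growth inhibition of human MKN-45 cells, measured with a cell viability assay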
# Description: SANGER: Inhibition of human MKN45 cell growth in a cell viability assay.
# SW1417 = experiment: cells; format: functional, cell-based; settings: Homo sapiens;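 also: growth inhibition of human SW1417 cells, read out with a cell viability assay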
# Description: SANGER: Inhibition of human SW1417 cell growth in a cell viability assay.
# HT55 = experiment: cells; format: functional, cell-based; settings: Homo sapiens;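 also: cell viability readout measuring growth inhibition of human HT55 cells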
# Description: SANGER: Inhibition of human HT55 cell growth in a cell viability assay.
# U-251 = experiment: cells; format: functional, cell-based; settings: Homo sapiens;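 also: growth inhibition of human U-251 cells, read out through a cell viability assay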
# Description: SANGER: Inhibition of human U251 cell growth in a cell viability assay.
# NCI-H1623 = experiment: cells; format: functional, cell-based; settings: Homo sapiens;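 also: cell viability assay used as the read-out for growth inhibition of NCI-H1623 cells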
# Description: SANGER: Inhibition of human NCI-H1623 cell growth in a cell viability assay.
# AGS = experiment: cells; format: functional, cell-based; settings: Homo sapiens;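 also: growth inhibition of AGS cells, determined with a cell viability assay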
# Description: SANGER: Inhibition of human AGS cell growth in a cell viability assay.
# CP50-MEL-B = experiment: cells; format: functional, cell-based; settings: Homo sapiens;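 also: growth inhibition of the human cell line, measured with a cell viability read-out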
# Description: SANGER: Inhibition of human CP50-MEL-B cell growth in a cell viability assay.
# RPMI-7951 = experiment: cells; format: functional, cell-based; settings: Homo sapiens
# Description: SANGER: Inhibition of human RPMI-7951 cell growth in a cell viability assay.
# MG-63 = experiment: cells; format: functional, cell-based; settings: Homo sapiens;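 also: growth inhibition of human MG-63 cells, read out with a cell viability assay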
# Description: SANGER: Inhibition of human MG-63 cell growth in a cell viability assay.
# HT-1080 = experiment: cells; format: functional, cell-based; settings: Homo sapiens
# Description: SANGER: Inhibition of human HT-1080 cell growth in a cell viability assay.
# NCI-H2452 = experiment: cells; format: functional, cell-based; settings: Homo sapiens;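 also: growth inhibition of NCI-H2452 cells, read out with a cell viability assay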
# Description: SANGER: Inhibition of human NCI-H2452 cell growth in a cell viability assay.
# FTC-133 = experiment: cells; format: functional, cell-based; settings: Homo sapiens
# NY = experiment: cells; format: functional, cell-based; settings: Homo sapiens
# Description: SANGER: Inhibition of human NY cell growth in a cell viability assay.
# ASPC1 = experiment: cells; format: functional, cell-based; settings: Homo sapiens;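 also: growth inhibition of AsPC-1 cells, read out with a cell viability assay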
# Description: SANGER: Inhibition of human AsPC-1 cell growth in a cell viability assay.
# A 172 = experiment: cells; format: functional, cell-based; settings: Homo sapiens;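 also: growth inhibition of A172 cells, measured with a cell viability readout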
# Description: SANGER: Inhibition of human A172 cell growth in a cell viability assay.
# SK-MEL-24 = experiment: cells; format: functional, cell-based; settings: Homo sapiens;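 also: growth inhibition read out by a cell viability assay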
# Description: SANGER: Inhibition of human SK-MEL-24 cell growth in a cell viability assay.
# M059J = experiment: cells; format: functional, cell-based; settings: Homo sapiens;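 also: growth inhibition of M059J cells, read out with a cell viability assay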
# Description: SANGER: Inhibition of human M059J cell growth in a cell viability assay.
# PC-3 = experiment: cells; format: functional, cell-based; settings: Homo sapiens;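 also: cell viability assay measuring growth inhibition of PC-3 cells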
# Description: SANGER: Inhibition of human PC-3 cell growth in a cell viability assay.
# A-431 = experiment: cells; format: functional, cell-based; settings: Homo sapiens;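 also: growth inhibition of A-431 cells, determined with a cell viability read-out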
# Description: SANGER: Inhibition of human A431 cell growth in a cell viability assay.
# MDA-MB-415 = experiment: cells; format: functional, cell-based; settings: Homo sapiens
# TYK-nu = experiment: cells; format: functional, cell-based; settings: Homo sapiens;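 also: growth inhibition of human TYK-nu cells, read out by a cell viability assay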
# Description: SANGER: Inhibition of human TYK-nu cell growth in a cell viability assay.
# RMG-I = experiment: cells; format: functional, cell-based; settings: Homo sapiens;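 also: growth inhibition of human RMG-I cells, read out with a cell viability assay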
# Description: SANGER: Inhibition of human RMG-I cell growth in a cell viability assay.
# DMS-153 = experiment: cells; format: functional, cell-based, Homo sapiens
# Description: SANGER: Inhibition of human DMS-153 cell growth in a cell viability assay.
# REH = experiment: cells; format: functional, cell-based, Homo sapiens; settings: reh;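 also: growth inhibition of REH cells determined with a cell viability read-out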
# Description: SANGER: Inhibition of human REH cell growth in a cell viability assay.
# Daudi = experiment: cells; format: functional, cell-based, Homo sapiens; settings: daudi;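 also: growth inhibition of Daudi cells, read out by a viability assay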
# Description: SANGER: Inhibition of human Daudi cell growth in a cell viability assay.
# BC-3 = experiment: cells; format: functional, cell-based, Homo sapiens;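 also: cell viability assay measuring growth inhibition of human BC-3 cells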
# Description: SANGER: Inhibition of human BC-3 cell growth in a cell viability assay.
# TUR = experiment: cells; format: functional, cell-based, Homo sapiens; settings: tur;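 also: growth inhibition of human TUR cells, read out with a cell viability assay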
# Description: SANGER: Inhibition of human TUR cell growth in a cell viability assay.
# IM-9 = experiment: SANGER: Inhibition of human IM-9 cell growth in a cell viability assay.; format: functional, cell-based; settings: im-9
# SIG-M5 = experiment: cells; format: functional, cell-based, Homo sapiens; settings: sig-m5;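 also: cell viability assay read-out, measuring how strongly growth of cultured human SIG-M5 cells is inhibited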
# Description: SANGER: Inhibition of human SIG-M5 cell growth in a cell viability assay.
# EC-GI-10 = experiment: cells; format: functional, cell-based, Homo sapiens
# Description: SANGER: Inhibition of human EC-GI-10 cell growth in a cell viability assay.
# LP-1 = experiment: cells; format: functional, cell-based, Homo sapiens; settings: lp-1;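 also: growth inhibition of human LP-1 cells, with the read-out taken from a cell viability assay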
# Description: SANGER: Inhibition of human LP-1 cell growth in a cell viability assay.
# OPM-2 = experiment: cells; format: functional, cell-based, Homo sapiens; settings: opm-2;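 also: growth of OPM-2 cells measured with a viability assay, IC50 for suppression of proliferation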
# Description: SANGER: Inhibition of human OPM-2 cell growth in a cell viability assay.
# DMS-79 = experiment: cells; format: functional, cell-based, Homo sapiens; settings: dms-79
# Description: SANGER: Inhibition of human DMS-79 cell growth in a cell viability assay.
# NCI-H187 = experiment: cells; format: functional, cell-based, Homo sapiens; settings: nci-h187;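 also: growth inhibition of NCI-H187 cells, read out as cell viability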
# Description: SANGER: Inhibition of human NCI-H187 cell growth in a cell viability assay.
# L-540 = experiment: cells; format: functional, cell-based, Homo sapiens; settings: l-540;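 also: growth inhibition of the human L-540 cell line, read out with a viability assay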
# Description: SANGER: Inhibition of human L-540 cell growth in a cell viability assay.
# SUP-T1 = experiment: cells; format: functional, cell-based, Homo sapiens;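 also: growth inhibition of human SUP-T1 cells, read out as cell viability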
# Description: SANGER: Inhibition of human SUP-T1 cell growth in a cell viability assay.
# SK-MM-2 = experiment: cells; format: functional, cell-based, Homo sapiens; settings: sk-mm-2;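 also: growth inhibition of human SK-MM-2 cells, read out with a cell viability assay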
# Description: SANGER: Inhibition of human SK-MM-2 cell growth in a cell viability assay.
# TALL-1 = experiment: cells; format: functional, cell-based, Homo sapiens; settings: tall-1;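 also: growth inhibition of cultured human TALL-1 cells, read out by a cell viability assay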
# Description: SANGER: Inhibition of human TALL-1 cell growth in a cell viability assay.
# NCI-H345 = experiment: cells; format: functional, cell-based, Homo sapiens; settings: nci-h345;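 also: growth inhibition of NCI-H345 cells measured with a cell viability assay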
# Description: SANGER: Inhibition of human NCI-H345 cell growth in a cell viability assay.
# SNU-C1 = experiment: cells; format: functional, cell-based, Homo sapiens; settings: snu-c1;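 also: growth inhibition of SNU-C1 human cells, read out by a cell viability assay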
# Description: SANGER: Inhibition of human SNU-C1 cell growth in a cell viability assay.
# RPMI 8402 = experiment: SANGER: Inhibition of human RPMI-8402 cell growth in a cell viability assay.; format: functional, cell-based; settings: rpmi-8402
# NCI-H1436 = experiment: cells; format: functional, cell-based, Homo sapiens;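 also: growth suppression of human NCI-H1436 cells, determined with a cell viability readout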
# Description: SANGER: Inhibition of human NCI-H1436 cell growth in a cell viability assay.
# SNU-16 = experiment: cells; format: functional, cell-based, Homo sapiens;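 also: growth inhibition of human SNU-16 cells, determined with a cell viability readout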
# Description: SANGER: Inhibition of human NCI-SNU-16 cell growth in a cell viability assay.
smiles,measurement,setting,value
O=C1NC(=O)c2c1c(-c1ccccc1Cl)cc1[nH]c3ccc(O)cc3c21,IC50,SW48,> 2000 nM
same,IC50,T-24,> 2000 nM
same,IC50,HCC 2998,> 2000 nM
same,IC50,HCC1806,> 2000 nM
same,IC50,HT-3,> 2000 nM
same,IC50,KP-N-YN,> 2000 nM
same,IC50,CAL-12T,> 2000 nM
same,IC50,NCI-H2052,> 2000 nM
same,IC50,KYSE-70 cell line,> 2000 nM
same,IC50,SBC-5,> 2000 nM
same,IC50,G-401,> 2000 nM
same,IC50,CAL-62,> 2000 nM
same,IC50,SiHa,> 2000 nM
same,IC50,EFO-27,> 2000 nM
same,IC50,HCC70,> 2000 nM
same,IC50,MKN-45,852 nM
same,IC50,SW1417,> 2000 nM
same,IC50,HT55,> 2000 nM
same,IC50,U-251,> 2000 nM
same,IC50,NCI-H1623,> 2000 nM
same,IC50,AGS,> 2000 nM
same,IC50,CP50-MEL-B,> 2000 nM
same,IC50,RPMI-7951,> 2000 nM
same,IC50,MG-63,> 2000 nM
same,IC50,HT-1080,1200 nM
same,IC50,NCI-H2452,> 2000 nM
same,IC50,FTC-133,> 2000 nM
same,IC50,NY,> 2000 nM
same,IC50,ASPC1,> 2000 nM
same,IC50,A 172,> 2000 nM
same,IC50,SK-MEL-24,> 2000 nM
same,IC50,M059J,> 2000 nM
same,IC50,PC-3,> 2000 nM
same,IC50,A-431,> 2000 nM
O=C(NCCCNc1nc(Nc2cccc(NC(=O)N3CCCC3)c2)ncc1I)c1cccs1 [BX-795],IC50,SW48,2020 nM
same,IC50,T-24,> 5000 nM
same,IC50,HCC 2998,> 5000 nM
same,IC50,HCC1806,> 5000 nM
same,IC50,MDA-MB-415,> 5000 nM
same,IC50,HT-3,> 5000 nM
same,IC50,KP-N-YN,> 5000 nM
same,IC50,CAL-12T,4790 nM
same,IC50,NCI-H2052,> 5000 nM
same,IC50,KYSE-70 cell line,> 5000 nM
same,IC50,SBC-5,> 5000 nM
same,IC50,G-401,2560 nM
same,IC50,CAL-62,> 5000 nM
same,IC50,SiHa,> 5000 nM
same,IC50,EFO-27,> 5000 nM
same,IC50,HCC70,> 5000 nM
same,IC50,MKN-45,> 5000 nM
same,IC50,TYK-nu,2930 nM
same,IC50,SW1417,> 5000 nM
same,IC50,HT55,> 5000 nM
same,IC50,U-251,> 5000 nM
same,IC50,NCI-H1623,> 5000 nM
same,IC50,AGS,2560 nM
same,IC50,CP50-MEL-B,> 5000 nM
same,IC50,RPMI-7951,3190 nM
same,IC50,MG-63,1690 nM
same,IC50,HT-1080,> 5000 nM
same,IC50,NCI-H2452,4830 nM
same,IC50,FTC-133,3020 nM
same,IC50,NY,> 5000 nM
same,IC50,ASPC1,> 5000 nM
same,IC50,RMG-I,> 5000 nM
same,IC50,A 172,4450 nM
same,IC50,SK-MEL-24,> 5000 nM
same,IC50,M059J,1380 nM
same,IC50,PC-3,4170 nM
same,IC50,A-431,2760 nM
CC(C)C[C@@H](C=O)NC(=O)[C@H](CC(C)C)NC(=O)[C@H](CC(C)C)NC(=O)OCc1ccccc1 [MG-132] (Cbz-Leu-Leu-Leu-aldehyde),IC50,"DMS-153; Homo sapiens, DMS-153",> 1000 nM
same,IC50,DMS-153; dms-153,> 1000 nM
same,IC50,HCC 2998,939 nM
same,IC50,KP-N-YN,> 1000 nM
same,IC50,REH,> 1000 nM
same,IC50,Daudi,> 1000 nM
same,IC50,"BC-3; Homo sapiens, BC-3",> 1000 nM
same,IC50,BC-3; bc-3,> 1000 nM
same,IC50,TUR,> 1000 nM
same,IC50,IM-9,> 1000 nM
same,IC50,SIG-M5,> 1000 nM
same,IC50,"EC-GI-10; Homo sapiens, EC-GI-10",> 1000 nM
same,IC50,EC-GI-10; ec-gi-10,> 1000 nM
same,IC50,LP-1,> 1000 nM
same,IC50,OPM-2,105 nM and 758 nM
same,IC50,DMS-79,> 1000 nM
same,IC50,NCI-H187,> 1000 nM
same,IC50,L-540,> 1000 nM
same,IC50,"SUP-T1; Homo sapiens, SUP-T1",> 1000 nM
same,IC50,SUP-T1; sup-t1,> 1000 nM
same,IC50,SK-MM-2,> 1000 nM
same,IC50,TALL-1,> 1000 nM
same,IC50,NCI-H345,> 1000 nM
same,IC50,SNU-C1,> 1000 nM
same,IC50,RPMI 8402,> 1000 nM
same,IC50,"NCI-H1436; Homo sapiens, NCI-H1436",> 1000 nM
same,IC50,NCI-H1436; nci-h1436,> 1000 nM
same,IC50,"SNU-16; Homo sapiens, SNU-16",> 1000 nM
same,IC50,SNU-16; snu-16,> 1000 nM

# Reference: ChEMBL document CHEMBL1201861, “Genomics of Drug Sensitity in Cancer screening data, Wellcome Trust Sanger Institute”
